Source: patent publication US6737383B1, “Herbicidal oxadiazolidines” (priority 1999, dated 2004)

How the values were obtained:
rice = experiment: Test B flood test rice; assay type: in vivo, Oryza sativa
Outline: (§1)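 Plants were grown to the 2-leaf stage before treatment with test chemical, then held in a greenhouse for twelve to sixteen days. Injury was visually rated against untreated controls on a 0–10 scale, where 0 is no effect and 10 is complete control.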

velvetleaf = experiment: Test B pre/postemergence velvetleaf; assay type: in vivo, Abutilon theophrasti; conditions: for Plant response rating, Velvetleaf: scale of 0 to 10 where 0 is no effect and 10 is complete control
Outline: (§2)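 Herbicidal effect was estimated by eye on a ten-point control scale after plants spent twelve to sixteen days in a greenhouse following soil or foliar treatment. Foliar sprays targeted plants at one to four leaves; all doses were formulated in a non-phytotoxic solvent with surfactant.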

smallflower flatsedge = experiment: Test B flood test smallflower flatsedge; assay type: in vivo, Cyperus difformis
Outline: as §1

duck salad = experiment: Test B flood test duck salad; assay type: in vivo, Heteranthera limosa
Outline: as §1

sugar beet = experiment: Test B pre/postemergence sugar beet; assay type: in vivo, Beta vulgaris; conditions: for Plant response rating, Sugarbeets: scale of 0 to 10 where 0 is no effect and 10 is complete control
Outline: as §2

soybean = experiment: Test B pre/postemergence soybean; assay type: in vivo, Glycine max; conditions: for Plant response rating, Soybean: scale of 0 to 10 where 0 is no effect and 10 is complete control
Outline: as §2

cocklebur = experiment: Test B pre/postemergence cocklebur; assay type: in vivo, Xanthium strumarium
Outline: as §2

wheat = experiment: Test B pre/postemergence wheat; assay type: in vivo, Triticum aestivum; conditions: for Plant response rating, Wheat: scale of 0 to 10 where 0 is no effect and 10 is complete control
Outline: as §2

pigweed = experiment: Test B pre/postemergence pigweed; assay type: in vivo, Amaranthus retroflexus; conditions: for Plant response rating, Redroot pigweed: scale of 0 to 10 where 0 is no effect and 10 is complete control
Outline: as §2

morningglory = experiment: Test B pre/postemergence morningglory; assay type: in vivo, Ipomoea hederacea; conditions: for Plant response rating, Morningglory: scale of 0 to 10 where 0 is no effect and 10 is complete control
Outline: as §2

bamyardgrass = experiment: Test B flood test barnyardgrass; assay type: in vivo, Echinochloa crus-galli
Outline: as §1

blackgrass = experiment: Test B pre/postemergence blackgrass; assay type: in vivo, Alopecurus myosuroides
Outline: as §2

wild oat = experiment: Test B pre/postemergence wild oat; assay type: in vivo, Avena fatua; conditions: for Plant response rating, Wild oats: scale of 0 to 10 where 0 is no effect and 10 is complete control
Outline: as §2

giant foxtail = experiment: Test B pre/postemergence giant foxtail; assay type: in vivo, Setaria faberii
Outline: as §2

purple nutsedge = experiment: Test B pre/postemergence purple nutsedge; assay type: in vivo, Cyperus rotundus; conditions: for Plant response rating, Nutsedge: scale of 0 to 10 where 0 is no effect and 10 is complete control
Outline: as §2

rape = experiment: Test B pre/postemergence rape; assay type: in vivo, Brassica napus; conditions: for Plant response rating, Rape: scale of 0 to 10 where 0 is no effect and 10 is complete control
Outline: as §2

[1] = Rate 62 g/ha, flood test species, Pre-emergence, visual evaluation after twelve to sixteen days
[2] = Rate 125 g/ha, under heading Pre-emergence, flood test species, visual evaluation after twelve to sixteen days
[3] = Rate 250 g/ha, Pre-emergence (flood test species), scale 0 to 10, 0 is no effect, 10 is complete control
[4] = Rate 500 g/ha, Pre-emergence, flood test species, scale 0 to 10 (0 no effect, 10 complete control)
[5] = Postemergence, Rate 250 g/ha, scale 0 to 10
[6] = Preemergence, Rate 250 g/ha, scale 0 to 10, 0 is no effect, 10 is complete control
[7] = Preemergence, Rate 500 g/ha, scale 0 to 10, 0 is no effect, 10 is complete control
[8] = Rate 62 g/ha, Postemergence, scale 0 to 10 (0 no effect, 10 complete control)
[9] = Rate 125 g/ha, Postemergence, scale 0 to 10, 0 is no effect, 10 is complete control
[10] = Postemergence, Rate 500 g/ha, scale of 0 to 10 where 0 is no effect and 10 is complete control
[11] = Preemergence, Rate 62 g/ha, scale of 0 to 10 where 0 is no effect and 10 is complete control
[12] = Preemergence, Rate 125 g/ha, scale of 0 to 10 where 0 is no effect and 10 is complete control

## CC[Si](C)(C)Cn1c(=O)on(C(=O)N(c2ccc(Cl)cc2)C(C)C)c1=O [Compound 460]
rice; [1]
  Plant response rating, Rice (0 to 10 scale, 0 is no effect, 10 is complete control): 0
rice; [2]
  Rice plant response rating (0 to 10 scale, 0 is no effect, 10 is complete control): 0
rice; [3]
  Rice plant response rating: 0
rice; [4]
  Rice plant response rating: 0
velvetleaf; [5]
  Velvetleaf plant response rating: 0
velvetleaf; Preemergence, Rate 62 g/ha
  Plant response rating, Velvetleaf: 0
velvetleaf; Preemergence, Rate 125 g/ha
  Plant response rating, Velvetleaf: 0
velvetleaf; [6]
  Velvetleaf plant response rating: 0
velvetleaf; [7]
  Velvetleaf plant response rating: 0
velvetleaf; [8]
  Velvetleaf plant response rating: 0
velvetleaf; [9]
  Velvetleaf plant response rating: 0
Smallflower flatsedge; [1]
  Plant response rating, S. Flatsedge (0 to 10 scale, 0 is no effect, 10 is complete control): 0
Smallflower flatsedge; [2]
  S. Flatsedge plant response rating (0 to 10 scale, 0 is no effect, 10 is complete control): 0
Smallflower flatsedge; [3]
  S. Flatsedge plant response rating: 0
Smallflower flatsedge; [4]
  S. Flatsedge plant response rating: 0
Duck salad; [1]
  Plant response rating, Ducksalad (0 to 10 scale, 0 is no effect, 10 is complete control): 0
Duck salad; [2]
  Ducksalad plant response rating (0 to 10 scale, 0 is no effect, 10 is complete control): 0
Duck salad; [3]
  Ducksalad plant response rating: 0
Duck salad; [4]
  Ducksalad plant response rating: 0
Sugar beet; [5]
  Sugarbeets plant response rating: 0
Sugar beet; Preemergence, Rate 62 g/ha
  Plant response rating, Sugarbeets: 0
Sugar beet; Preemergence, Rate 125 g/ha
  Plant response rating, Sugarbeets: 0
Sugar beet; [6]
  Sugarbeets plant response rating: 0
Sugar beet; [7]
  Sugarbeets plant response rating: 0
Sugar beet; [8]
  Sugarbeets plant response rating: 0
Sugar beet; [9]
  Sugarbeets plant response rating: 0
soybean; [5]
  Soybean plant response rating: 4
soybean; Preemergence, Rate 62 g/ha
  Plant response rating, Soybean: 0
soybean; Preemergence, Rate 125 g/ha
  Plant response rating, Soybean: 0
soybean; [6]
  Soybean plant response rating: 0
soybean; [7]
  Soybean plant response rating: 0
soybean; [8]
  Soybean plant response rating: 3
soybean; [9]
  Soybean plant response rating: 3
cocklebur; [5]
  Cocklebur plant response rating: 0
cocklebur; [10]
  Cocklebur plant response rating: 0
cocklebur; [11]
  Plant response rating, Cocklebur: 0
cocklebur; [12]
  Plant response rating, Cocklebur: 0
cocklebur; [6]
  Cocklebur plant response rating: 0
cocklebur; [7]
  Cocklebur plant response rating: 0
cocklebur; [8]
  Cocklebur plant response rating: 0
cocklebur; [9]
  Cocklebur plant response rating: 0
wheat; [5]
  Wheat plant response rating: 0
wheat; Preemergence, Rate 62 g/ha
  Plant response rating, Wheat: 0
wheat; Preemergence, Rate 125 g/ha
  Plant response rating, Wheat: 0
wheat; [6]
  Wheat plant response rating: 0
wheat; [7]
  Wheat plant response rating: 0
wheat; [8]
  Wheat plant response rating: 0
wheat; [9]
  Wheat plant response rating: 0
pigweed; [5]
  Redroot pigweed plant response rating: 1
pigweed; Preemergence, Rate 62 g/ha
  Plant response rating, Redroot pigweed: 0
pigweed; Preemergence, Rate 125 g/ha
  Plant response rating, Redroot pigweed: 0
pigweed; [6]
  Redroot pigweed plant response rating: 0
pigweed; [7]
  Redroot pigweed plant response rating: 0
pigweed; [8]
  Redroot pigweed plant response rating: 0
pigweed; [9]
  Redroot pigweed plant response rating: 0
morningglory; [5]
  Morningglory plant response rating: 7
morningglory; Preemergence, Rate 62 g/ha
  Plant response rating, Morningglory: 0
morningglory; Preemergence, Rate 125 g/ha
  Plant response rating, Morningglory: 0
morningglory; [6]
  Morningglory plant response rating: 0
morningglory; [7]
  Morningglory plant response rating: 0
morningglory; [8]
  Morningglory plant response rating: 7
morningglory; [9]
  Morningglory plant response rating: 7
bamyardgrass; [1]
  Plant response rating, Barnyardgrass (0 to 10 scale, 0 is no effect, 10 is complete control): 0
bamyardgrass; [2]
  Barnyardgrass plant response rating (0 to 10 scale, 0 is no effect, 10 is complete control): 0
bamyardgrass; [3]
  Barnyardgrass plant response rating: 0
bamyardgrass; [4]
  Barnyardgrass plant response rating: 0
blackgrass; [10]
  Blackgrass plant response rating: 8
blackgrass; [11]
  Plant response rating, Blackgrass: 0
blackgrass; [12]
  Plant response rating, Blackgrass: 0
blackgrass; [6]
  Blackgrass plant response rating: 0
blackgrass; [7]
  Blackgrass plant response rating: 3
blackgrass; [8]
  Blackgrass plant response rating: 2
Wild oat; [5]
  Wild oats plant response rating: 0
Wild oat; Preemergence, Rate 62 g/ha
  Plant response rating, Wild oats: 0
Wild oat; Preemergence, Rate 125 g/ha
  Plant response rating, Wild oats: 0
Wild oat; [6]
  Wild oats plant response rating: 0
Wild oat; [7]
  Wild oats plant response rating: 0
Wild oat; [8]
  Wild oats plant response rating: 0
Wild oat; [9]
  Wild oats plant response rating: 0
Giant foxtail; [5]
  Giant foxtail plant response rating: 0
Giant foxtail; [10]
  Giant foxtail plant response rating: 1
Giant foxtail; [11]
  Plant response rating, Giant foxtail: 0
Giant foxtail; [12]
  Plant response rating, Giant foxtail: 6
Giant foxtail; [6]
  Giant foxtail plant response rating: 8
Giant foxtail; [7]
  Giant foxtail plant response rating: 9
Giant foxtail; [8]
  Giant foxtail plant response rating: 0
Giant foxtail; [9]
  Giant foxtail plant response rating: 0
Purple nutsedge; [5]
  Nutsedge plant response rating: 0
Purple nutsedge; Preemergence, Rate 62 g/ha
  Plant response rating, Nutsedge: 0
Purple nutsedge; Preemergence, Rate 125 g/ha
  Plant response rating, Nutsedge: 0
Purple nutsedge; [6]
  Nutsedge plant response rating: 0
Purple nutsedge; [7]
  Nutsedge plant response rating: 0
Purple nutsedge; [8]
  Nutsedge plant response rating: 0
Purple nutsedge; [9]
  Nutsedge plant response rating: 0
rape; [5]
  Rape plant response rating: 0
rape; Preemergence, Rate 62 g/ha
  Plant response rating, Rape: 0
rape; Preemergence, Rate 125 g/ha
  Plant response rating, Rape: 0
rape; [6]
  Rape plant response rating: 0
rape; [7]
  Rape plant response rating: 0
rape; [8]
  Rape plant response rating: 0
rape; [9]
  Rape plant response rating: 0
